Laboratory results from patent US20060211700A1, “(R)-8,9-dichloro-2,3,4,4a-tetrahydro-1H,6H-pyrazino[1,2-a]quinoxalin-5-one for controlling IOP and treating glaucoma” (Alcon, Inc., priority 2005, published 2006).

Key:
[1] = molecular target: T1, human serotonin receptor clone 5-HT2B (Homo sapiens, UniProt P41595); assay: In vitro functional response (aequorin luminescence) in CHO-K1 cells expressing 5-HT2B; assay type: cell-based; conditions: for Emax: CHO-K1, relative to the response of α-methyl-5-HT; for EC50: CHO-K1 cells, aequorin, Gα16
T1 construct: expressed in transfected cells; host or cells: CHO-K1
Method: (§1) In Vitro Functional Response at 5-HT2 Receptors
(§2) Functional response at the 5-HT2 receptor subtypes was determined using CHO-K1 cells stably expressing mitochondrially-targeted bioluminescent aequorin, Gα16, and one of either human serotonin receptor clone 5-HT2A, 5-HT2B, or 5-HT2C. Prior to testing, cells were loaded in suspension with coelenterazine for 4-16 hours and directly injected onto different concentrations of the test compound. Light emitted from the cells was measured 20-30 seconds following receptor activation. A luminometer was used to record luminescence in response to the test compound. The mean response signal at each of 8-11 different concentrations was integrated to provide an estimation of receptor activation, expressed as the EC50 value. The efficacy of the response (Emax) at the 5-HT2A and 5-HT2B receptors is expressed relative to the response of α-methyl-5-HT under the same assay conditions while the efficacy at 5-HT2C is expressed relative to the response of 5-HT.

[2] = molecular target: T2, human serotonin receptor clone 5-HT2A (Homo sapiens, UniProt P28223); assay: In vitro functional response (aequorin luminescence) in CHO-K1 cells expressing 5-HT2A; assay type: cell-based; conditions: for Emax: CHO-K1, relative to the response of α-methyl-5-HT; for EC50: CHO-K1 cells, aequorin, Gα16
T2 construct: expressed in transfected cells; host or cells: CHO-K1
Method: as §1, §2

[3] = test system: lasered (hypertensive) eyes of conscious cynomolgus monkeys; assay: Acute IOP response in lasered (hypertensive) eyes of conscious cynomolgus monkeys; assay type: in vivo, cynomolgus monkey; conditions: for IOP % change / IOP Change mmHg: lasered eye; for IOP lowering efficacy (in words): dosed at 300 μg
Method: Acute IOP Response in Lasered (Hypertensive) Eyes of Conscious Cynomolgus Monkeys
Intraocular pressure (IOP) can be determined with an Alcon Pneumatonometer after light corneal anesthesia with 0.1% proparacaine. Eyes are washed with saline after each measurement. After a baseline IOP measurement, test compound is instilled in one 30 μL aliquot to the right eyes only of nine cynomolgus monkeys. Vehicle is instilled in the right eyes of six additional animals. Subsequent IOP measurements are taken at 1, 3, and 6 hours.
The above method was used to determine the IOP lowering efficacy of 8,9-dichloro-2,3,4,4a-tetrahydro-1H,6H-pyrazino[1,2-a]quinoxalin-5-one when dosed at 300 μg.
The same method was used to evaluate the IOP lowering ability of the R enantiomer of the Compound (substantially free of the S enantiomer), dosed at 300 μg.

[4] = molecular target: T3, human serotonin receptor clone 5-HT2C (Homo sapiens, UniProt P28335); assay: In vitro functional response (aequorin luminescence) in CHO-K1 cells expressing 5-HT2C; assay type: cell-based; conditions: for Emax: CHO-K1, relative to the response of 5-HT; for EC50: CHO-K1 cells, aequorin, Gα16
T3 construct: expressed in transfected cells; host or cells: CHO-K1
T3 sequence (P28335 33-458): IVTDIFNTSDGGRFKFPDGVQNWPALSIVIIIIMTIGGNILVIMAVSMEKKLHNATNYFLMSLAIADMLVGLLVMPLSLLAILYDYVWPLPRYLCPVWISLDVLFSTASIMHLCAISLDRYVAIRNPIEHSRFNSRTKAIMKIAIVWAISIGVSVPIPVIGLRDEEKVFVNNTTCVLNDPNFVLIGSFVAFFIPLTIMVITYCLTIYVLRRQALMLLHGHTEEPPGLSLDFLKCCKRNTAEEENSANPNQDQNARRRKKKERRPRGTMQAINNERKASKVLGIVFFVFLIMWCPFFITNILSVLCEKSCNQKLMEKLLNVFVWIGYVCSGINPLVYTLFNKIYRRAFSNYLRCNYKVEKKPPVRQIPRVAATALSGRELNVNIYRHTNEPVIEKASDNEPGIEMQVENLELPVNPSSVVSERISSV
Method: as §1, §2

5-HT2C receptor = molecular target: T4, 5-HT2C receptor (Homo sapiens, UniProt P28335); conditions: R enantiomer versus S enantiomer; cited from earlier work
T4 sequence (P28335 33-458): T3 sequence (P28335 33-458)

[5] = 1 hr after topical dose of 300 μg (one 30 μL aliquot)
[6] = 3 hrs after topical dose of 300 μg (one 30 μL aliquot)
[7] = 6 hrs after topical dose of 300 μg (one 30 μL aliquot)

T2 sequence (P28223 whole entry): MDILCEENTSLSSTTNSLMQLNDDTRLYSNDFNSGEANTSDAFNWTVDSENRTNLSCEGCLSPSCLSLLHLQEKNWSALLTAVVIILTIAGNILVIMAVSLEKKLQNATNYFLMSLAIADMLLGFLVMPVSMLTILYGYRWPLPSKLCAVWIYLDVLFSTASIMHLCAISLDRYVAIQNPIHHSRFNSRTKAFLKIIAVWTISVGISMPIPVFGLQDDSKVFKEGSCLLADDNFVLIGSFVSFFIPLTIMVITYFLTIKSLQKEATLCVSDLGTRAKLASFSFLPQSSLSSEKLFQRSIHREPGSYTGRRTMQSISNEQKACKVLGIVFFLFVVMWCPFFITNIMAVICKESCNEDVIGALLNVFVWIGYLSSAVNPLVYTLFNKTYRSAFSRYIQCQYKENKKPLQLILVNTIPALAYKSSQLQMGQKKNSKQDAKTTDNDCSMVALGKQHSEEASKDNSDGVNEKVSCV
T1 sequence (P41595 whole entry): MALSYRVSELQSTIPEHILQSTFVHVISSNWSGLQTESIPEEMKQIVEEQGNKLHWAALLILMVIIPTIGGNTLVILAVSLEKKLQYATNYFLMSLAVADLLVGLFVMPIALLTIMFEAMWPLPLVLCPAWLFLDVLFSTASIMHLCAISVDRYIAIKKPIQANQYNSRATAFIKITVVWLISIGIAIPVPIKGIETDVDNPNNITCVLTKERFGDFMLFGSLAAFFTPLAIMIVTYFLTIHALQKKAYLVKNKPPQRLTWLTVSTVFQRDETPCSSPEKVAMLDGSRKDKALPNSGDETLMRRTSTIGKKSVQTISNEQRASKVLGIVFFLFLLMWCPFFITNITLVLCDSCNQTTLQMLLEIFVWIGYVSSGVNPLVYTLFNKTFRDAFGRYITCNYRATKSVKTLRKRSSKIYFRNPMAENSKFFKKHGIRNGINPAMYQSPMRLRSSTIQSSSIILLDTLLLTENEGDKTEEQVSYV

| Compound | Emax [1] [%] | EC50 [1] [µM] | Emax [2] [%] | EC50 [2] [µM] | IOP % change [3, 5] [%] | IOP Change mmHg [3, 5] [mmHg] | IOP % change [3, 6] [%] | IOP Change mmHg [3, 6] [mmHg] | IOP % change [3, 7] [%] | IOP Change mmHg [3, 7] [mmHg] | IOP lowering efficacy (in words) [3] | Emax [4] [%] | EC50 [4] [µM] | potency relative to the S enantiomer at the 5-HT2C receptor (5-HT2C receptor) |
| --- | --- | --- | --- | --- | --- | --- | --- | --- | --- | --- | --- | --- | --- | --- |
| O=C1Nc2cc(Cl)c(Cl)cc2N2CCNCC12 (racemic) [Racemic, 8,9-dichloro-2,3,4,4a-tetrahydro-1H,6H-pyrazino[1,2-a]quinoxalin-5-one] | 98 | 0.0768 | 112 | 0.0375 | −5.7 | −2.8 | −21.9 | −9.6 | −29.3 | −12.8 | significant decrease in IOP | 105 | 0.0042 |  |
| O=C1Nc2cc(Cl)c(Cl)cc2N2CCNC[C@H]12 [R enantiomer, (R)-8,9-dichloro-2,3,4,4a-tetrahydro-1H,6H-pyrazino[1,2-a]quinoxalin-5-one] | 99 | 0.0316 | 108 | 0.0205 | −12.9 | −5.8 | −26.3 | −11.7 | −34.7 | −15.0 | significant decrease in IOP | 108 | 0.0026 | approximately 40 fold |
| O=C1Nc2cc(Cl)c(Cl)cc2N2CCNC[C@@H]12 [S enantiomer] | 45 | 2.54 | 96 | 2.26 |  |  |  |  |  |  |  | 105 | 0.614 |  |
